Measured values taken from patent US20030148960A1, “Combination therapy of angiotensin converting enzyme inhibitor and side-effect-reduced amount of aldosterone antagonist for treatment of cardiovascular disease” (G.D. Searle & Co., priority 1995, published 2003).

What was measured:
[1] = test system: patients with symptomatic heart failure; test: Human clinical trial: incidence and predictors of hyperkalemia (Cox regression); details: type of ACE-I as predictor; step-wise Cox regression; patients on spironolactone or placebo
Excerpt: In this, analysis, the risk ratio can be thought of as the probability that the patient with the risk factor will develop hyperkalemia, relative to the probability that a patient without the risk factor will develop it.

[2] = test system: patients with symptomatic heart failure; test: Human clinical trial: hospitalizations and deaths; format: in vivo
Excerpt: A breakdown of the hospitalizations is as follows:

[3] = test system: patients with symptomatic heart failure; test: Human clinical trial: clinical laboratory values (neurohormones, hematology, biochemistry); details: for PRA (plasma renin activity), Week 12 mean change: Week 12 vs baseline, with stable ACE inhibitor and loop diuretic
[4] = test system: myocardial fibrosis in animal models; details: cited from earlier work
refractory CHF = details: 50 mg/day to 100 mg/day (average 73 mg/day) in combination with captopril; cited from earlier work
[5] = test system: patients with symptomatic heart failure; test: Human clinical trial: incidence of adverse events, intent-to-treat cohort; format: in vivo
[6] = test system: patients afflicted with congestive heart failure; details: 100 mg/day coadministered with an ACE inhibitor; cited from earlier work
[7] = test system: patients with symptomatic heart failure; test: Human clinical trial: cardiac assessments and changes in patient therapy; format: in vivo
Excerpt: (§1) Cardiac assessments that included blood pressure, pulse, sodium retention score (general assessment of a patient's edematous state was derived from the summation of scores obtained from Table I), NYHA classification, and
All statistical methods were two-sided.

[8] = test system: patients with symptomatic heart failure; test: Human clinical trial: change in weight and vital signs; format: in vivo
Excerpt: Laboratory Measurements: The following information was obtained from each patient at baseline:
as §1
All statistical methods were two-sided.

Compound: C[C@H](CS)C(=O)N1CCC[C@H]1C(=O)O [Captopril, captopril]
- Risk ratio of hyperkalemia, captopril vs other ACE-I [1]: about one-third

Compound: CC(=O)S[C@@H]1CC2=CC(=O)CC[C@]2(C)[C@H]2CC[C@@]3(C)[C@@H](CC[C@@]34CCC(=O)O4)[C@H]12 [Spironolactone, 17-hydroxy-7α-mercapto-3-oxo-17α-pregn-4-ene-21-carboxylic acid γ-lactone acetate]
- Hospitalizations, number of patients ([2]; 12.5 mg): 3 Patients
- Hospitalizations, percent of patients ([2]; 12.5 mg): (7.3%)
- Hospitalizations, number of patients ([2]; 25 mg): 3 Patients
- Hospitalizations, percent of patients ([2]; 25 mg): (6.6%)
- Hospitalizations, number of patients ([2]; 50 mg): 13 Patients
- Hospitalizations, percent of patients ([2]; 50 mg): (27.6%)
- Hospitalizations, number of patients ([2]; 75 mg): 6 Patients
- Hospitalizations, percent of patients ([2]; 75 mg): (14.6%)
- Deaths within 30 days after the study was completed ([2]; patients previously at the 50 mg dose): Three patients died within 30 days after the study was completed
- PRA (plasma renin activity), Week 12 mean change ([3]; 12.5 mg/d): 9.90 NgAngl/L/s
- PRA (plasma renin activity), Week 12 mean change ([3]; 25 mg/d): 9.33 NgAngl/L/s
- PRA (plasma renin activity), Week 12 mean change ([3]; 50 mg/d): 13.18 NgAngl/L/s
- PRA (plasma renin activity), Week 12 mean change ([3]; 75 mg/d): 10.23 NgAngl/L/s
- Change from baseline in PRA, dose response ([3]; Day 9, Week 4 and Week 12, P≦0.001): higher doses of spironolactone associated with greater increases in PRA
- N-Terminal ANF change from baseline ([3]; all active treatments, all treatment visits): decreases from baseline
- Change from baseline in serum potassium, dose response ([3]; all treatment period visits, p<0.001): Higher doses of spironolactone were associated with larger increases in potassium
- Urinary aldosterone excretion, dose response ([3]; baseline to 12 week visit, p=0.002): Greater increases were seen at higher doses
- Effect on myocardial fibrosis [4]: prevents myocardial fibrosis
- Control of refractory CHF (refractory CHF): effective to control refractory CHF without serious incidents of hyperkalemia
- Incidence of URT infection ([5]; 12.5 mg): 4.9 Percentage of Patients
- Incidence of abdominal pain ([5]; 12.5 mg): 7.3 Percentage of Patients
- Incidence of angina pectoris ([5]; 12.5 mg): 19.5 Percentage of Patients
- Incidence of arthralgia ([5]; 12.5 mg): 4.9 Percentage of Patients
- Incidence of coughing ([5]; 12.5 mg): 4.9 Percentage of Patients
- Incidence of diarrhea ([5]; 12.5 mg): 4.9 Percentage of Patients
- Incidence of dizziness ([5]; 12.5 mg): 12.2 Percentage of Patients
- Incidence of dyspnea ([5]; 12.5 mg): 22.0 Percentage of Patients
- Incidence of fatigue ([5]; 12.5 mg): 12.2 Percentage of Patients
- Incidence of headache ([5]; 12.5 mg): 9.8 Percentage of Patients
- Incidence of hyperkalemia (adverse event) ([5]; 12.5 mg): 2.4 Percentage of Patients
- Incidence of nausea ([5]; 12.5 mg): 2.4 Percentage of Patients
- Incidence of URT infection ([5]; 25 mg): 11.1 Percentage of Patients
- Incidence of abdominal pain ([5]; 25 mg): 8.9 Percentage of Patients
- Incidence of angina pectoris ([5]; 25 mg): 20.0 Percentage of Patients
- Incidence of arthralgia ([5]; 25 mg): 4.4 Percentage of Patients
- Incidence of coughing ([5]; 25 mg): 2.2 Percentage of Patients
- Incidence of diarrhea ([5]; 25 mg): 22.2 Percentage of Patients
- Incidence of dizziness ([5]; 25 mg): 13.3 Percentage of Patients
- Incidence of dyspnea ([5]; 25 mg): 15.6 Percentage of Patients
- Incidence of fatigue ([5]; 25 mg): 13.3 Percentage of Patients
- Incidence of headache ([5]; 25 mg): 2.2 Percentage of Patients
- Incidence of hyperkalemia (adverse event) ([5]; 25 mg): 8.9 Percentage of Patients
- Incidence of nausea ([5]; 25 mg): 17.8 Percentage of Patients
- Incidence of URT infection ([5]; 50 mg): 8.7 Percentage of Patients
- Incidence of abdominal pain ([5]; 50 mg): 13.0 Percentage of Patients
- Incidence of angina pectoris ([5]; 50 mg): 8.7 Percentage of Patients
- Incidence of arthralgia ([5]; 50 mg): 8.7 Percentage of Patients
- Incidence of coughing ([5]; 50 mg): 4.3 Percentage of Patients
- Incidence of diarrhea ([5]; 50 mg): 8.7 Percentage of Patients
- Incidence of dizziness ([5]; 50 mg): 13.0 Percentage of Patients
- Incidence of dyspnea ([5]; 50 mg): 26.1 Percentage of Patients
- Incidence of fatigue ([5]; 50 mg): 15.2 Percentage of Patients
- Incidence of headache ([5]; 50 mg): 15.2 Percentage of Patients
- Incidence of hyperkalemia (adverse event) ([5]; 50 mg): 15.2 Percentage of Patients
- Incidence of nausea ([5]; 50 mg): 6.5 Percentage of Patients
- Incidence of URT infection ([5]; 75 mg): 2.4 Percentage of Patients
- Incidence of abdominal pain ([5]; 75 mg): 7.3 Percentage of Patients
- Incidence of angina pectoris ([5]; 75 mg): 14.6 Percentage of Patients
- Incidence of arthralgia ([5]; 75 mg): 4.9 Percentage of Patients
- Incidence of coughing ([5]; 75 mg): 2.4 Percentage of Patients
- Incidence of diarrhea ([5]; 75 mg): 14.6 Percentage of Patients
- Incidence of dizziness ([5]; 75 mg): 17.1 Percentage of Patients
- Incidence of dyspnea ([5]; 75 mg): 24.4 Percentage of Patients
- Incidence of fatigue ([5]; 75 mg): 14.6 Percentage of Patients
- Incidence of headache ([5]; 75 mg): 7.3 Percentage of Patients
- Incidence of hyperkalemia (adverse event) ([5]; 75 mg): 19.5 Percentage of Patients
- Incidence of nausea ([5]; 75 mg): 19.5 Percentage of Patients
- Patients in whom treatment was highly effective [6]: 13 of 16
- Sodium retention score, dose response ([7]; Day 9, p=0.019, not seen at later visits): higher doses showing more reduction in sodium retention score
- Changes in loop diuretic therapy ([7]; Week 8, p=0.004, not observed at Week 12): more patients on the higher doses of spironolactone had decreases in the loop diuretic dose compared to the placebo group
- NYHA Class ([7]; spironolactone groups vs placebo): the difference was not statistically significant
- Change in mean systolic and diastolic blood pressure (standing and supine) ([8]; 25 mg, 50 mg and 75 mg groups, all visits): decreases in mean systolic and diastolic blood pressure
- Mean change in weight from baseline to Week 12 ([8]; 50 mg/d, Week 12, with stable ACE inhibitor and loop diuretic): 0.62 (2.05)
- Change from baseline in body weight, dose response ([8]; 75 mg dose group, Day 9 and Week 4): more weight loss than other patients
